Data as given in PubChem BioAssay AID248 (DTP/NCI, 2004).
Values joined by “and” are separate entries in the source; they are usually repeats but may differ in a detail not shown here. Equal entries are not always repeated. Inconclusive results and toxic doses are left out. No stated cut-off is given here; in the data, active means T/C of 150% or more; inactive means T/C below 125%.

System: L1210 leukemia ip in BDF1 mice, survival T/C
Assay: NCI In Vivo Anticancer Drug Screen. Data for tumor model L1210 Leukemia (intraperitoneal) in B6D2F1 (BDF1) mice
Conditions: endpoint: mean survival time, higher = longer survival
Method in brief: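 Tumor was transplanted into mice, which were then dosed with test compound or vehicle alone. Survival was recorded for each group, and the treated figure was expressed relative to the control figure.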

[1] = dose: 100.0 mg/kg/injection, schedule: Q01DX001 (ip), vehicle: saline
[2] = dose: 200.0 mg/kg/injection, schedule: Q01DX001 (ip), vehicle: saline
[3] = dose: 400.0 mg/kg/injection, schedule: Q01DX001 (ip), vehicle: saline
[4] = dose: 100.0 mg/kg/injection, schedule: Q04DX002 (ip), vehicle: Klucel (hydroxypropylcellulose) (HPC)
[5] = dose: 200.0 mg/kg/injection, schedule: Q04DX002 (ip), vehicle: Klucel (hydroxypropylcellulose) (HPC)
[6] = dose: 400.0 mg/kg/injection, schedule: Q04DX002 (ip), vehicle: Klucel (hydroxypropylcellulose) (HPC)
[7] = dose: 100.0 mg/kg/injection, schedule: Q01DX009 (ip), vehicle: Klucel (hydroxypropylcellulose) (HPC)
[8] = dose: 100.0 mg/kg/injection, schedule: Q04DX003 (ip), vehicle: Klucel (hydroxypropylcellulose) (HPC)
[9] = dose: 200.0 mg/kg/injection, schedule: Q01DX009 (ip), vehicle: Klucel (hydroxypropylcellulose) (HPC)
[10] = dose: 200.0 mg/kg/injection, schedule: Q04DX003 (ip), vehicle: Klucel (hydroxypropylcellulose) (HPC)
[11] = dose: 400.0 mg/kg/injection, schedule: Q01DX009 (ip), vehicle: Klucel (hydroxypropylcellulose) (HPC)
[12] = dose: 400.0 mg/kg/injection, schedule: Q04DX003 (ip), vehicle: Klucel (hydroxypropylcellulose) (HPC)
[13] = dose: 100.0 mg/kg/injection, schedule: Q04DX003 (ip), vehicle: saline with Tween-80
[14] = dose: 200.0 mg/kg/injection, schedule: Q04DX003 (ip), vehicle: saline with Tween-80
[15] = dose: 400.0 mg/kg/injection, schedule: Q04DX003 (ip), vehicle: saline with Tween-80

Measured: T/C

Cc1ncc(CO)c(C)c1O
inactive: dose: 0.03 mg/kg/injection, schedule: Q02DX010 (ip), vehicle: saline 118 % of control | dose: 0.04 mg/kg/injection, schedule: Q02DX010 (ip), vehicle: saline 118 % of control | dose: 0.07 mg/kg/injection, schedule: Q02DX010 (ip), vehicle: saline 123 % of control | dose: 0.15 mg/kg/injection, schedule: Q02DX010 (ip), vehicle: saline 86 % of control | dose: 0.23 mg/kg/injection, schedule: Q02DX010 (ip), vehicle: saline 86 % of control | dose: 12.5 mg/kg/injection, schedule: Q01DX009 (ip), vehicle: saline 98 % of control | dose: 22.81 mg/kg/injection, schedule: Q01DX Z (ip), vehicle: carboxymethylcellulose (CMC) 102 % of control | dose: 25.0 mg/kg/injection, schedule: Q01DX009 (ip), vehicle: saline 95 % of control | dose: 45.62 mg/kg/injection, schedule: Q01DX Z (ip), vehicle: carboxymethylcellulose (CMC) 101 % of control | dose: 50.0 mg/kg/injection, schedule: Q01DX009 (ip), vehicle: saline 103 % of control | dose: 91.25 mg/kg/injection, schedule: Q01DX Z (ip), vehicle: carboxymethylcellulose (CMC) 105 % of control | dose: 100.0 mg/kg/injection, schedule: Q01DX009 (ip), vehicle: saline 102 % of control | dose: 182.3 mg/kg/injection, schedule: Q01DX Z (ip), vehicle: carboxymethylcellulose (CMC) 110 % of control | dose: 200.0 mg/kg/injection, schedule: Q01DX009 (ip), vehicle: saline 108 % of control

Cn1c(=N)ccn(C2OC(CO)C(O)C2O)c1=O (centres undefined) (tested in a mixture with another compound)
inactive: [1] 106 % of control | [2] 106 % of control | [3] 107 % of control

O=C(O)C1CC=CCC1C(=O)Nc1cccc(O)c1 (centres undefined)
inactive: [4] 99 % of control | [5] 105 % of control | [6] 99 % of control

O=c1cc(NCc2ccccc2[N+](=O)[O-])[nH]c(=O)[nH]1
inactive: [1] 95 % of control | [2] 100 % of control | [3] 98 % of control

Nc1c(Br)cc(I)cc1C(=O)O
inactive: [4] 108 % of control | [5] 93 % of control | [6] 104 % of control

Cc1cc2c(c(NC(=O)NCCCl)c1C)CCCC2
inactive: [7] 92 % of control | [8] 105 % of control | [9] 100 % of control | [10] 96 % of control | [11] 91 % of control | [12] 103 % of control

Cc1ncc(C(O)c2ccccc2)n1Cc1ccccc1 (centres undefined)
inactive: dose: 100.0 mg/kg/injection, schedule: Q01DX001 (ip), vehicle: Klucel (hydroxypropylcellulose) (HPC) 94 % of control | [7] 93 % of control and 107 % of control | [8] 106 % of control | dose: 200.0 mg/kg/injection, schedule: Q01DX001 (ip), vehicle: Klucel (hydroxypropylcellulose) (HPC) 100 % of control | [9] 93 % of control and 103 % of control | [10] 97 % of control | dose: 400.0 mg/kg/injection, schedule: Q01DX001 (ip), vehicle: Klucel (hydroxypropylcellulose) (HPC) 98 % of control | [11] 104 % of control and 89 % of control | [12] 99 % of control

c1ccc(-c2ccc([Si](c3ccc(-c4ccccc4)cc3)(c3ccc(-c4ccccc4)cc3)c3ccc(-c4ccccc4)cc3)cc2)cc1
inactive: dose: 12.5 mg/kg/injection, schedule: Q01DX009 (ip), vehicle: gum acacia 95 % of control | dose: 12.5 mg/kg/injection, schedule: Q04DX003 (ip), vehicle: gum acacia 106 % of control | dose: 25.0 mg/kg/injection, schedule: Q01DX009 (ip), vehicle: gum acacia 100 % of control | dose: 25.0 mg/kg/injection, schedule: Q04DX003 (ip), vehicle: gum acacia 95 % of control | dose: 50.0 mg/kg/injection, schedule: Q01DX009 (ip), vehicle: gum acacia 86 % of control | dose: 50.0 mg/kg/injection, schedule: Q04DX003 (ip), vehicle: gum acacia 92 % of control

Cc1ccc(-n2ccnc2)c(N=Cc2ccc(N(CCCl)CCCl)cc2F)c1
inactive: [4] 98 % of control | [5] 106 % of control | [6] 106 % of control

COc1ccc(COC(=O)Nc2cccc(Cl)c2C)cc1
inactive: dose: 100.0 mg/kg/injection, schedule: Q01DX001 (ip), vehicle: saline with Tween-80 90 % of control | dose: 100.0 mg/kg/injection, schedule: Q01DX009 (ip), vehicle: saline with Tween-80 97 % of control and 98 % of control | dose: 100.0 mg/kg/injection, schedule: Q04DX002 (ip), vehicle: saline with Tween-80 95 % of control and 104 % of control | [13] 93 % of control | dose: 200.0 mg/kg/injection, schedule: Q01DX001 (ip), vehicle: saline with Tween-80 92 % of control | dose: 200.0 mg/kg/injection, schedule: Q01DX009 (ip), vehicle: saline with Tween-80 97 % of control and 89 % of control | dose: 200.0 mg/kg/injection, schedule: Q04DX002 (ip), vehicle: saline with Tween-80 101 % of control and 87 % of control | [14] 93 % of control | dose: 400.0 mg/kg/injection, schedule: Q01DX001 (ip), vehicle: saline with Tween-80 87 % of control | dose: 400.0 mg/kg/injection, schedule: Q01DX009 (ip), vehicle: saline with Tween-80 93 % of control | dose: 400.0 mg/kg/injection, schedule: Q04DX002 (ip), vehicle: saline with Tween-80 96 % of control and 101 % of control | [15] 96 % of control

CS(=O)(=O)OCCCS(=O)(=O)O
inactive: [1] 102 % of control

COC(=O)CC1C(C)(C)C(=O)C2CC3=C4CC(=O)OC(c5ccoc5)C4(C)CCC3C1(C)C2=O (centres undefined)
inactive: dose: 100.0 mg/kg/injection, schedule: Q01DX001 (ip), vehicle: carboxymethylcellulose (CMC) 97 % of control | dose: 200.0 mg/kg/injection, schedule: Q01DX001 (ip), vehicle: carboxymethylcellulose (CMC) 92 % of control | dose: 400.0 mg/kg/injection, schedule: Q01DX001 (ip), vehicle: carboxymethylcellulose (CMC) 90 % of control

CC1(C)CCC2(C(=O)OC3OC(CO)C(O)C(O)C3O)CCC3(CO)C(=CCC4C5(C)CC(O)C(O)C(C)(C(=O)OC6OC(CO)C(O)C(O)C6O)C5CCC43C)C2C1 (centres undefined)
inactive: dose: 75.0 mg/kg/injection, schedule: Q01DX001 (sc), vehicle: steriod suspending solution 101 % of control | dose: 300.0 mg/kg/injection, schedule: Q01DX001 (sc), vehicle: steriod suspending solution 107 % of control

C=C(Br)CNC(=O)C(C)(C)C
inactive: [13] 97 % of control | [14] 97 % of control | [15] 98 % of control

Cc1cc(C(=O)NNCc2ccccc2)no1
inactive: dose: 12.5 mg/kg/injection, schedule: Q01DX009 (ip), vehicle: Klucel (hydroxypropylcellulose) (HPC) 102 % of control | dose: 25.0 mg/kg/injection, schedule: Q01DX009 (ip), vehicle: Klucel (hydroxypropylcellulose) (HPC) 96 % of control | dose: 50.0 mg/kg/injection, schedule: Q01DX009 (ip), vehicle: Klucel (hydroxypropylcellulose) (HPC) 97 % of control
